Legend:
[1] = tested on: Opie2-tra-neo expressing flies; assay: Sex selection of Opie2-tra-neo flies on G418 diet; type: in vivo, Drosophila melanogaster; conditions: diet with increasing concentrations of G418; at ~5 mg/ml; n=2,000
Excerpt: (§1) The possibility of utilizing the endogenous sex determination machinery to promote sex-specific antibiotic resistance-based selection was next tested. Sex-specific introns dsx and tra were incorporated into the coding frames of the antibiotic resistance genes pac and neo, respectively, and two types of flies were generated, one type expressing Opie2-tra-neo and another type expressing Opie2-dsx-pac. The dsx intron can be excised by splicing only in males and the tra intron can be excised by splicing only in females. This precise sex-specific splicing of these two introns is dictated by the sex determination machinery of the fly. […] The Opie2-tra-neo expressing flies were fed diet containing increasing concentrations of G418 resulting in 100% female progeny at ˜5 mg/ml (n=2,000). The Opie2-dsx-pac expressing flies were fed diet containing increasing concentrations of puromycin resulting in 100% male progeny at ˜2 mg/ml (n=500).

[2] = tested on: genetically engineered insects containing both antibiotic resistance markers; assay: Sex selection of flies carrying combined vector (Opie2-tra-neo and Opie2-dsx-pac); type: in vivo, Drosophila
Excerpt: The expanded insect population containing both males and females was transferred to a diet supplemented with puromycin.

[3] = tested on: Drosophila wild-type larvae; assay: Antibiotic toxicity test, wild-type larvae fed antibiotic-supplemented diet; type: in vivo, Drosophila melanogaster; conditions: for first instar death: larvae fed antibiotic-supplemented diet at around 1 mg/ml, n=10,000; for concentration at which antibiotic was highly toxic: wild-type larvae fed increasing amounts in diet
Procedure: As proof of principle, an embodiment of this system was developed for the fruit fly Drosophila melanogaster. As an initial test of antibiotic toxicity, Drosophila wild-type larvae were separately fed increasing amounts of either G418 or puromycin. Both antibiotics were highly toxic around 1 mg/ml such that when larvae were fed antibiotic-supplemented diet at this concentration, 100% first instar death was observed (n=10,000). Thus, these two antibiotics can be used as selection molecules in this system.

[4] = tested on: transgenic flies expressing the pac gene; assay: Antibiotic diet fed to transgenic flies expressing pac gene; type: in vivo, Drosophila; conditions: diet with increasing concentrations of puromycin; pac under Opie2 promoter
Excerpt: To determine if the toxicity of puromycin and neomycin could be negated, antibiotic resistance genes pac and neo were used. Two types of transgenic flies were generated each expressing one type of antibiotic resistance gene under the control of the promoter Opie2. One type of transgenic fly expressed the pac gene and the other expressed the neo gene. Transgenic flies were fed a diet supplemented with increasing concentrations of either puromycin or G418, respectively. […] Additionally, these transgenic flies were quite healthy with high fitness. Thus, the pac and neo genes could be used to counter the toxicity of […], respectively.

[5] = tested on: flies expressing Opie2-tra-pac; assay: Sex selection of Opie2-tra-pac flies on puromycin diet; type: in vivo, Drosophila melanogaster; conditions: larvae fed diet with increasing concentrations of puromycin; n=500
Excerpt: Thus, the sex specific introns can be interchangeably used with either antibiotic resistance genes to select for either males or females.

[6] = tested on: Opie2-dsx-pac expressing flies; assay: Sex selection of Opie2-dsx-pac flies on puromycin diet; type: in vivo, Drosophila melanogaster; conditions: diet with increasing concentrations of puromycin; at ~2 mg/ml; n=500
Excerpt: as §1

insects = conditions: tetracycline in diet; Zeh et al., 2012; cited from earlier work

CN[C@@H]1[C@@H](O)[C@@H](O[C@@H]2[C@@H](O)[C@H](O[C@H]3O[C@H]([C@@H](C)O)[C@@H](O)[C@H](O)[C@H]3N)[C@@H](N)C[C@H]2N)OC[C@]1(C)O [G418]
female progeny [1]: 100%
females selected ([2]; diet supplemented with increasing concentrations of G418 (FIG. 3)): 100%
first instar death [3]: 100%
concentration at which antibiotic was highly toxic [3]: around 1 mg/ml

COc1ccc(C[C@H](N)C(=O)N[C@H]2[C@@H](O)[C@H](n3cnc4c(N(C)C)ncnc43)O[C@@H]2CO)cc1 [puromycin]
toxicity of antibiotic in resistance-gene flies [4]: negate the toxicity
female progeny [5]: 100%
male progeny [6]: 100%
males selected ([2]; diet supplemented with increasing concentrations of puromycin (FIG. 2)): 100%
sex-selective killing of progeny ([2]; puromycin-supplemented diet, first instar larval stage): female progeny were selectively killed
first instar death [3]: 100%
concentration at which antibiotic was highly toxic [3]: around 1 mg/ml

CN(C)[C@@H]1C(O)=C(C(N)=O)C(=O)[C@@]2(O)C(O)=C3C(=O)c4c(O)cccc4[C@@](C)(O)[C@H]3C[C@@H]12 [tetracycline]
side effect on insects (fitness) (insects): large fitness cost
